Test [1] relates to esophageal, liver and breast cancer cell lines. The following applies: several esophageal, dose-dependent; cited from earlier work.
The target of test [2] is T1, SMYD3 (Homo sapiens (Human), UniProt Q9H7B4). The test is described as follows: SMYD3 biochemical assay (SPA, 3H-SAM methylation of MEKK2 protein substrate). An outline of the steps:
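Native full-length human SMYD3 (E. coli-expressed, tags removed) was preincubated with compound for 30 min at room temperature in 25 mM Tris-Cl pH 8.0, 1 mM TCEP, 0.005% BSG, 0.005% Tween 20. Reaction was started with 3H-SAM plus GST-MEKK2, quenched with 100 uM unlabeled SAM, and read by SPA scintillation counting.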

Test [3] addresses T1, SMYD3. Nature of the test: SMYD3 cell assay (Trimethyl-MEKK2 In-Cell Western in 293T/17 cells). The format is cell-based. An outline of the steps: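 In-Cell Western ratio of trimethyl-Lys260 MEKK2 to anti-flag signal; percent inhibition from DMSO and maximum-inhibition controls, IC50 by non-linear regression, triplicates.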
[4] abbreviates: IC50 values are an average of n = 1 to n = 50, read-out: SMYD3 Biochem IC50*.
Setting [5] is: IC50 values are an average of n = 1 to n = 50, read-out: SMYD3 Cell IC50*.

T1 sequence (Q9H7B4 whole entry): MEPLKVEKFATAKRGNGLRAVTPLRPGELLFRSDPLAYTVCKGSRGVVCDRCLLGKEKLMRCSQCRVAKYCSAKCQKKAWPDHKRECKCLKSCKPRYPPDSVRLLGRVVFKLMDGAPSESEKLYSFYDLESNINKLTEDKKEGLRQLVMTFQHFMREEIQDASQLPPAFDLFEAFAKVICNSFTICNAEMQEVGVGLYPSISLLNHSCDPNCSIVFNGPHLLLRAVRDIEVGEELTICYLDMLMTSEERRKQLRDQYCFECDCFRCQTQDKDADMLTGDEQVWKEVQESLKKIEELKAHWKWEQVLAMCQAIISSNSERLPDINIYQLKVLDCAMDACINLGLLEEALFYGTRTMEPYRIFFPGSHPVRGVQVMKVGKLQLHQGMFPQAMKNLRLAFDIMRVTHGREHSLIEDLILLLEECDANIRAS

With `Cc1cn(CCN2CCN(c3ccccc3-c3cc(C#N)cc(C(=O)NCCCN4CCCC4)c3)CC2)c2ccccc12` [LLY-507], the “inhibition of proliferation of cancer cell lines” value in test [1] is given as “inhibited the proliferation”.

Take `CN1CCCC1CS(=O)(=O)N1[C@@H]2CC[C@H]1C[C@@H](NC(=O)c1cc(C3CC3)on1)C2` (stereo partly drawn) [compound 982, 5-cyclopropyl-N-((1R,3r,5S)-8-(((1-methylpyrrolidin-2-yl)methyl)sulfonyl)-8-azabicyclo[3.2.1]octan-3-yl)isoxazole-3-carboxamide]: the IC50 (in general, the concentration that gives 50% inhibition) was 134 nM on SMYD3 [2] (setting [4]) and 819 nM at SMYD3 [3] (setting [5]).

Turning to `CC[C@H]1CNCCN1S(=O)(=O)N1CC[C@H](NC(=O)c2cc(C3CC3)on2)C[C@@H]1C` [compound 983, 5-cyclopropyl-N-((2S,4S)-1-(((S)-2-ethylpiperazin-1-yl)sulfonyl)-2-methylpiperidin-4-yl)isoxazole-3-carboxamide], the IC50 on SMYD3 [2] (setting [4]) was 142 nM; at SMYD3 [3] (setting [5]) it was 931 nM.

As to `C[C@H]1C[C@@H](NC(=O)c2cc(C3CC3)on2)CCN1S(=O)(=O)N1CCNC[C@@H]1c1ccccc1` [compound 984, 5-cyclopropyl-N-((2S,4S)-2-methyl-1-(((S)-2-phenylpiperazin-1-yl)sulfonyl)piperidin-4-yl)isoxazole-3-carboxamide], the 50% inhibitory concentration (IC50) at SMYD3 [2] (setting [4]) came to 142 nM; on SMYD3 [3] (setting [5]), 1850 nM.

Consider `O=C(N[C@H]1C[C@H]2CC[C@@H](C1)N2S(=O)(=O)[C@H]1CCCN(CCO)C1)c1cc(C2CC2)on1` [compound 985, 5-cyclopropyl-N-((1R,3S,5S)-8-(((S)-1-(2-hydroxyethyl)piperidin-3-yl)sulfonyl)-8-azabicyclo[3.2.1]octan-3-yl)isoxazole-3-carboxamide], for which the values for the IC50 at SMYD3 [2] (setting [4]) and at SMYD3 [3] (setting [5]) were 155 nM and 708 nM, respectively.

On to `COCCNCc1ccc(S(=O)(=O)N2[C@@H]3CC[C@H]2C[C@@H](NC(=O)c2cc(C4CC4)on2)C3)cc1` [compound 986, 5-cyclopropyl-N-((1R,3r,5S)-8-((4-(((2-methoxyethyl)amino)methyl)phenyl)sulfonyl)-8-azabicyclo[3.2.1]octan-3-yl)isoxazole-3-carboxamide], for which the IC50 on SMYD3 [2] (setting [4]) was 156 nM; on SMYD3 [3] (setting [5]), 807 nM.

For the compound `CCc1cc(C(=O)N[C@@H]2CCN(S(=O)(=O)c3ccc(C(C)(C)N)cc3)[C@@H](C)C2)no1` [compound 987, N-((2S,4R)-1-((4-(2-aminopropan-2-yl)phenyl)sulfonyl)-2-methylpiperidin-4-yl)-5-ethylisoxazole-3-carboxamide], the IC50 on SMYD3 [2] (setting [4]) turned out to be 158 nM; on SMYD3 [3] (setting [5]), 776 nM.

Turning to `CN(C)C(C)(C)c1ccc(S(=O)(=O)N2[C@@H]3CC[C@H]2C[C@@H](NC(=O)c2cc(C4CC4)on2)C3)cc1` [compound 988, 5-cyclopropyl-N-((1R,3r,5S)-8-((4-(2-(dimethylamino)propan-2-yl)phenyl)sulfonyl)-8-azabicyclo[3.2.1]octan-3-yl)isoxazole-3-carboxamide], the IC50 on SMYD3 [2] (setting [4]) stood at 158 nM; at SMYD3 [3] (setting [5]), 1670 nM.

As for `C[C@H]1C[C@@H](NC(=O)c2cc(C3CC3)on2)CCN1S(=O)(=O)CC1CCCCN1` (stereo partly drawn) [compound 989, 5-cyclopropyl-N-((2S,4S)-2-methyl-1-((piperidin-2-ylmethyl)sulfonyl)piperidin-4-yl)isoxazole-3-carboxamide], the IC50 at SMYD3 [2] (setting [4]) was determined as 175 nM; on SMYD3 [3] (setting [5]) it was 1160 nM.

Regarding `O=C(N[C@H]1C[C@H]2CC[C@@H](C1)N2S(=O)(=O)N1CC2CCC(C1)N2CCC(F)(F)F)c1cc(C2CC2)on1` [compound 990, 5-cyclopropyl-N-((1R,3r,5S)-8-((8-(3,3,3-trifluoropropyl)-3,8-diazabicyclo[3.2.1]octan-3-yl)sulfonyl)-8-azabicyclo[3.2.1]octan-3-yl)isoxazole-3-carboxamide], the IC50 at SMYD3 [2] (setting [4]) turned out to be 184 nM; at SMYD3 [3] (setting [5]), 935 nM.

With `CCC[C@H]1C[C@@H](NC(=O)c2cc(C3CC3)on2)CCN1S(=O)(=O)CC1CCN(C)CC1` [compound 991, 5-cyclopropyl-N-((2S,4S)-1-(((1-methylpiperidin-4-yl)methyl)sulfonyl)-2-propylpiperidin-4-yl)isoxazole-3-carboxamide], the IC50 on SMYD3 [2] (setting [4]) was 187 nM; at SMYD3 [3] (setting [5]), 2190 nM.

Take `C[C@H]1CN(S(=O)(=O)N2CC[C@H](NC(=O)c3cc(C4CC4)on3)C[C@@H]2C)[C@@H](C)CN1` [compound 992, 5-cyclopropyl-N-((2S,4S)-1-(((2S,5S)-2,5-dimethylpiperazin-1-yl)sulfonyl)-2-methylpiperidin-4-yl)isoxazole-3-carboxamide]: the IC50 at SMYD3 [2] (setting [4]) was 188 nM; at SMYD3 [3] (setting [5]), 1120 nM.

Consider `CC(C)Cc1cc(C(=O)N[C@H]2C[C@H]3CC[C@@H](C2)N3S(=O)(=O)CC2CCN(C)CC2)no1` [compound 993, 5-isobutyl-N-((1R,3r,5S)-8-(((1-methylpiperidin-4-yl)methyl)sulfonyl)-8-azabicyclo[3.2.1]octan-3-yl)isoxazole-3-carboxamide], for which the IC50 on SMYD3 [2] (setting [4]) turned out to be 206 nM; on SMYD3 [3] (setting [5]), 2770 nM.

As to “N-((2S,4S)-1-(3,8-diaza-bicyclo[3.2.1]octan-8-ylsulfonyl)-2-methylpiperidin-4-yl)-5-cyclopropylisoxazole-3-carboxamide [Cpd. No. 555]”, the IC50 on SMYD3 [2] (Table 2A, read-out: SMYD3 Biochem IC50) came out at 3.7 nM; at SMYD3 [3] (Table 2A, read-out: SMYD3 Cell IC50) it was 23.9 nM.

Source of the values: patent publication US10577363B2, “Substituted piperidine compounds” (EPIZYME, INC., priority 2014, dated 2020).
